Assay results reported in patent US20220288052A1, “COMPOUND FOR COMBINATION TREATMENT” (priority 2019, published 2022).

Assays:
NMRI mice [1] = assay: Mouse forced swim test (mFST); format: in vivo; conditions: mFST (NMRI), p.o. 60 min
Experimental: Compound (I) was tested in two of the most widely used behavioural screens for predicting antidepressant effects in the clinic: the mouse forced swim test (mFST) and mouse tail suspension test (mTST).
In order to further characterize the role played by 5-HT and DA-ergic neurotransmission in the antidepressant-like effects of compound (I), the potential involvement of 5-HT1A and D1 receptors was investigated in the mFST.

C57 mice = assay: Mouse tail suspension test (mTST); format: in vivo; conditions: i.p. 30 min
Experimental: C57 males, 25-28 g, Taconic, 16/8-06. Mice acclimatized to ground floor 5 days before testing. Mice saline injected once a day twice before test day. 22° C., N=7-8.

[2] = system: nialamide pre-treated mice; assay: Nialamide-induced 5-HT syndrome (m5-HT); format: in vivo, mouse; conditions: m5-HT, p.o. 0 min
Experimental: 50 mg/kg nialamide s.c. t=120 min. Compound (I) p.o. t=0. n=4.
(§1) Compound (I) was tested in a classical test often used to measure the ability of a compound to block the reuptake of 5-HT in vivo: nialamide-induced 5-HT syndrome (m5-HT). In addition, compound (I) was tested in a locomotor activity paradigm (mLA) as a measure of its ability to block the reuptake of DA and therefore induce motility. It is generally accepted that >60% DA transporter blockade is needed to induce increased motility in this test.

NMRI mice [3] = assay: Locomotor activity (mLA); format: in vivo, mouse; conditions: mLA; for MED: p.o. 0 min
Experimental: FIG. 8: The effects of compound (I) on locomotor activity. Compound (I) p.o. in NMRI mice. TSE Motility.
as §1

NMRI mice [4] = assay: Mouse marble burying test (mMB); format: in vivo; conditions: Marble burying, p.o., −60 min
Experimental: FIG. 13: Marble burying. In the marble-burying test mice exposed to a novel object (marbles) bury them in the sawdust floor covering. Compounds showing anxiolytic-like activity decrease the number of buried marbles at non-sedative doses. […] The number of marbles covered by sawdust was counted at the end of a 60-min session.
(§2) Compound (I) was tested in three widely used behavioural screens for predicting anxiolytic effects in the clinic: the mouse marble burying test (mMB), mouse zero maze (mZM) and mouse stress-induced hyperthermia test (mSIH).

mice = assay: Mouse zero maze (mZM); format: in vivo; conditions: mZero maze, p.o., 7 days OD
Experimental: Mice were treated (peroral administration) for 7 days with either, vehicle, duloxetine (10 mg/kg), and compound I (0.1 mg/kg, 1 mg/kg, and 3 mg/kg) (n=8 in each group).
as §2

NMRI mice [5] = assay: Mouse stress-induced hyperthermia test (mSIH); format: in vivo; conditions: mSIH, p.o., −60 min
Experimental: FIG. 14: Stress-induced hyperthermia. When mice are confronted with a stress-full event, the body temperature rises.
as §2

[6] = target: T1, dopamine transporter (DAT) (Mus musculus, UniProt Q61327); assay: MPTP model of DAT inhibition (striatal dopamine depletion); format: in vivo, C57 mouse; design: Dopamine Mean ± SEM / DOPAC Mean ± SEM / HVA Mean ± SEM: unit not given here; conditions: MPTP 25 mg/kg s.c. alone
T1 construct: in vivo DAT transporter occupancy (open bars) in mouse striatum; from tissue; host or cells: mouse striatum (in vivo; C57 mice in the MPTP model)
T1 sequence (Q61327 whole entry): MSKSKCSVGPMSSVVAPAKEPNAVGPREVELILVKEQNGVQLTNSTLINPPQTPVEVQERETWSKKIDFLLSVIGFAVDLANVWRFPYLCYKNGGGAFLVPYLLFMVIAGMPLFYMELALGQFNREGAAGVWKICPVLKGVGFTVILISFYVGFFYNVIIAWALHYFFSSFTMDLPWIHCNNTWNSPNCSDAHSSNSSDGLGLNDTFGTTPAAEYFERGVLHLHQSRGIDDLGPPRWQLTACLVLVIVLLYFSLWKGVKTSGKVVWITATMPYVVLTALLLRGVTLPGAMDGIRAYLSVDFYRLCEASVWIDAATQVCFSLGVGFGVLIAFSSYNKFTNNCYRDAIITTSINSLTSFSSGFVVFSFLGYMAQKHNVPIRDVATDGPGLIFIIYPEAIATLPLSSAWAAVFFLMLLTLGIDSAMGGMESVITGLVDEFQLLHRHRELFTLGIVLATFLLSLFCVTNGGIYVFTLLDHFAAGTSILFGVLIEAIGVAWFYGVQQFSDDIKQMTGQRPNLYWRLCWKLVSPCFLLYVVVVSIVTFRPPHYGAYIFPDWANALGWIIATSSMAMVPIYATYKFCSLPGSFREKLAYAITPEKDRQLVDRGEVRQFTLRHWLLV
Text: In this model compound (I) induced protection against the dopamine depletion induced by the entry of the MPTP metabolite MPP+ into the dopamine terminals of the mouse C57 striatal tissue.

SMILES	MED (NMRI mice [1])	MED (C57 mice)	MED [2]	MED (NMRI mice [3])	Effect on locomotor activity (NMRI mice [3]; p.o.)	MED (NMRI mice [4])	MED (mice)	MED (NMRI mice [5])	DOPAC Mean ± SEM [6]	HVA Mean ± SEM [6]	Dopamine Mean ± SEM ([6]; mouse striatal tissue)
CN(C)CCCC1(c2ccc(F)cc2)OCc2cc(C#N)ccc21 (stereo not drawn) [Citalopram, reference compound]	10 mg/kg	<5 mg/kg	10 mg/kg	>60 mg/kg	–	–	–	–	–	–	–
CNCC[C@H](Oc1cccc2ccccc12)c1cccs1 [Duloxetine, reference compound]	30 mg/kg	10 mg/kg	10 mg/kg	>60 mg/kg	without effect	10 mg/kg	<10 mg/kg	>30 mg/kg	–	–	–
CN1CC=C(c2ccccc2)CC1 [MPTP, reference compound]	–	–	–	–	–	–	–	–	1 ± 0.2	0.7 ± 0.1	4.2 ± 0.6
